The record followed here is patent US20190183963A1, “PROCESS FOR THE SYNCHRONIZATION OF OVULATION FOR TIMED BREEDING WITHOUT HEAT DETECTION” (priority 2003, published 2019).

SMILES strings stand for the structures.

What all share (assay type): in vivo, swine
One assay relates to postpartum sows. Nature of the assay: Single timed deslorelin in SAIB injection 96 hours post-weaning, single timed insemination without estrus detection. The method, then:
Approximately 170 postpartum sows were randomly divided into two equal groups comprised of controls and treated. Following weaning, the controls were detected for estrus and bred following the normal standard operating procedures for the farms on which they resided. The treated sows received a 50 mcg dose of deslorelin in SAIB at 96 hours post-weaning and were bred with a single insemination 28+/−2 hours later with no regard to estrus detection. The sows were examined for pregnancy by ultrasound at 21 days and slaughtered around 28 days post breeding. The entire reproductive tract was removed and corpora lutea and embryos were counted.

The test system of the next assay is mature postpartum sows. Nature of the assay: Intravulvar deslorelin in SAIB at estrus detection, AI breeding of mature postpartum sows. Particulars: 50 μg intravulvar at first estrus detection. How it is done: Sows were assigned randomly in blocks of two to either control or to be injected intravulvar with 50 mcg of deslorelin in SAIB at the time of estrus detection for sows first detected in estrus in the a.m. and 12 hours later for those first detected in estrus in the p.m. Treated animals were bred AI upon detected estrus and again 24 hours later if still in estrus. Controls received a saline injection on first detected estrus behavior estrus detection and were bred according to the farm's normal procedures.

The test system of assay [1] is ovariectomized estrogen primed gilt model. Nature of the assay: Dose response study of deslorelin in SAIB, LH release determined by RIA. Particulars: single injection of 50 mcg. How it is done: A dose response study was performed using deslorelin in SAIB in an ovariectomized estrogen primed gilt model (Barb, et al. (1999) Proceed. Int'l. Symp. Control. Rel. Bioact. Mater., 26).

`CCNC(=O)[C@@H]1CCCN1C(=O)[C@H](CCCN=C(N)N)NC(=O)[C@H](CC(C)C)NC(=O)[C@@H](Cc1c[nH]c2ccccc12)NC(=O)[C@H](Cc1ccc(O)cc1)NC(=O)[C@H](CO)NC(=O)[C@H](Cc1c[nH]c2ccccc12)NC(=O)[C@H](Cc1cnc[nH]1)NC(=O)[C@@H]1CCC(=O)N1` [Deslorelin, deslorelin]: the “Sows Pregnant” value in the assay on postpartum sows (50 mcg at 96 hours post-weaning, single insemination 28+/-2 hours later, 84 in group, ultrasound at 21 days) came out at 60. Also, in the assay on postpartum sows (single timed injection post-weaning, single timed insemination, no estrus detection), the “pregnancy rates (in words)” value is on record as “normal pregnancy rates”. Besides, the “Length of Estrus (Hrs.)” value in the assay on mature postpartum sows (AI, AI again if in estrus the next day) was 40.81 (n = 69) Hrs. Further, in the assay on mature postpartum sows (difference to saline control, listed as deslorelin in SAIB), the “Live piglet number per litter, greater in Deslorelin versus Saline sows” value turned out to be 0.6. Further, the “time at which LH returned to base level” value in assay [1] is at most 18 h. Also, the “LH peak relative to normal value” in assay [1] (normal value from Hansel et al. 1973) is “about twice normal value”.
